pIC50: −log10 of the molar value. Like-named read-outs stand apart in the source and are kept apart here.
Experiments:
Format in all cases: cell-based
MCF7 cells = assay: Cell Titer-Glo 3D cell viability assay, 48 h, MCF7
Method: (§1) Cell Culture: Cell viability was assessed using the MCF7 and MCF10A cell lines. Cells were maintained in relevant media throughout the study, in an incubator set to 37°C and 5% CO2, with media changes every 2–3 days. […] Compound plate preparation: […] Plates were sealed and stored at −4°C prior to use. Viability Assay: […] Plates were incubated for 48 h in a humidified incubator set to 37°C and 5% CO2. […] Cat #G9682). Plates were centrifuged briefly and incubated protected from light for 30 min at 30°C. Luminescence signal was measured using a CLARIOstar Plus microplate reader (BMG Labtech). Data Analysis: Raw relative luminescence unit (RLU) data were de-randomised prior to background subtraction. Viability was determined as a percentage of vehicle control (DMSO only). % Viability = ((Sample RLU—Mean Positive Control) ÷ (Mean Negative Control—Mean Positive Control)) × 100.

MCF10A cells = assay: Cell Titer-Glo 3D cell viability assay, 48 h, MCF10A
Method: as §1

[1] = as above; conditions: human, MCF10A cells, MCF10A, 48 h, % of vehicle control
Method: as §1

[2] = Homo sapiens, MCF7; read-out: MCF7 IC50 Reached
[3] = Homo sapiens, MCF-10A; read-out: MCF10 IC50 Reached
[4] = Homo sapiens, MCF-10A; MCF10A, 48 h viability; read-out: IC50

SMILES	pIC50 (MCF7 cells; [2])	IC50 (in words) (MCF7 cells; MCF7, up to […])	pIC50 (MCF10A cells; [3])	IC50 (in words) (MCF10A cells; MCF10A, up to […])	pIC50 (MCF10A cells; [4])	further results
CC[C@@H]1C(=O)N(C)c2cnc(Nc3ccc(C(=O)NC4CCN(C)CC4)cc3OC)nc2N1C1CCCC1 [BI 2536]						pIC50 (MCF7 cells; Homo sapiens, MCF7, 48 h): > 7.00; pIC50 (MCF7 cells; Homo sapiens, MCF7, read-out: MCF7 IC50 Reached): > 5.60; pIC50 (MCF10A cells; Homo sapiens, MCF-10A, 48 h): ~6.00; pIC50 (MCF10A cells; Homo sapiens, MCF-10A, read-out: MCF10 IC50 Reached): > 5.60; viability at 48 h, […] ([1]; 0.0025 uM): 92.4%; viability at 48 h, […] ([1]; 0.025 uM): 67.7%; viability at 48 h, […] ([1]; 0.25 uM): 72.3%; viability at 48 h, […] ([1]; 2.5 uM): 33.9%
Nc1ccn([C@@H]2O[C@H](CO)[C@@H](O)[C@@H]2O)c(=O)n1 [Cytarabine]	< 5.60		< 5.60			
Nc1ccn([C@@H]2O[C@H](CO)[C@@H](O)C2(F)F)c(=O)n1 [Gemcitabine]	< 5.60		> 5.60		> 6.60	
Nc1nc2[nH]cc(CCc3ccc(C(=O)N[C@@H](CCC(=O)O)C(=O)O)cc3)c2c(=O)[nH]1 [Pemetrexed]	< 5.60	did not reach IC50 values	< 5.60	did not reach IC50 values		

The next lines start with results.

pIC50 (MCF7 cells; [2])	IC50 (in words) (MCF7 cells; MCF7, up to […])	SMILES	pIC50 (MCF10A cells; [3])	IC50 (in words) (MCF10A cells; MCF10A, up to […])	pIC50 (MCF10A cells; [4])	further results
< 5.60	did not reach IC50 values	Cc1cc([C@@H](C)Nc2ccccc2C(=O)O)c2nc(N3CCOCC3)cc(=O)n2c1 [AZD 6482]	< 5.60	did not reach IC50 values		
> 5.60		NS(=O)(=O)OC[C@@H]1C[C@@H](n2ccc3c(N[C@H]4CCc5ccccc54)ncnc32)C[C@@H]1O [Pevonedistat]	< 5.60		< 5.60	pIC50 (MCF7 cells; Homo sapiens; MCF7, 48 h viability; read-out: IC50): > 7.00

Source: paper PMC13242297, “Drug response profile-based machine learning enables strategic cell line and compound selection for drug development” (Bioinformatics, 2026)
